{
  "source": "paper PMC12136187",
  "about": "“A Full-Spectrum Generative Lead Discovery (FSGLD) Pipeline via DRUG-GAN: A Multiscale Method for Drug-like/Target-specific Compound Library Generation” (Research Square, 2025)",
  "biological_target": "T1, CB2 receptor (cannabinoid receptor 2) (Homo sapiens, UniProt P34972)",
  "T1 construct": "gene CNR2",
  "T1 sequence (P34972 whole entry)": "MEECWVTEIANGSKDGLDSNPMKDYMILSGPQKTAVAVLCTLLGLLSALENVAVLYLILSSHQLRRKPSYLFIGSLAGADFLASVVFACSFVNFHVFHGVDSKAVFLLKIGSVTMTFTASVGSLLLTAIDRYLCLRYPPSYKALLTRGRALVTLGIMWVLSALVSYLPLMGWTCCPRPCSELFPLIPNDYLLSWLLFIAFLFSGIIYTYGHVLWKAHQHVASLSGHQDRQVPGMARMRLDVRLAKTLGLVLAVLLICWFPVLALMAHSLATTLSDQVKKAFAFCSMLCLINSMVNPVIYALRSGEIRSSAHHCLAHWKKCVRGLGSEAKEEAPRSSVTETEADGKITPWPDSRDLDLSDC",
  "assay": "radioligand binding assay, dose-response",
  "data": [
    {"smiles": "CCCn1c(C)c(C(=O)NCC(=O)N2CCCCC2)c2cc(OC)ccc21", "note": "[ZINC77179032]", "values": [
      {"measurement": "Ki", "result": 3.77, "unit": "µM"}
    ]}
  ]
}
